According to ChEMBL document CHEMBL5096191 (J Med Chem, 2021):

Legend:
Assay type in all cases: functional, cell-based
Cannabinoid receptor 2 [1] = molecular target: T1, Cannabinoid receptor 2 (Homo sapiens, UniProt P34972); experiment: Partial agonist activity at wild type CB2 receptor (unknown origin) stably expressed in HEK293T assessed as decrease in forskolin induced cAMP level preincubated for 15 mins followed by forskolin addition incubated for 15 mins by HTRF assay
Cannabinoid receptor 2 [2] = molecular target: T1, Cannabinoid receptor 2; experiment: Partial agonist activity at wild type CB2 receptor (unknown origin) stably expressed in HEK293T assessed as decrease in forskolin induced cAMP level preincubated for 15 mins followed by forskolin addition incubated for 15 mins in presence of cannabidiol by HTRF assay
Cannabinoid receptor 2 [3] = molecular target: T1, Cannabinoid receptor 2; experiment: Partial agonist activity at wild type CB2 receptor (unknown origin) stably expressed in HEK293T assessed as decrease in forskolin induced cAMP level preincubated for 15 mins followed by forskolin addition incubated for 15 mins in presence of cannabidiol by HTRF assay relative to control; details: filed as partial agonist, time 30.0 min
Cannabinoid receptor 2 [4] = molecular target: T2, Cannabinoid receptor 2 (Homo sapiens, UniProt P34972, V113M); experiment: Partial agonist activity at CBR2 V1133.32M mutant (unknown origin) stably expressed in HEK293T assessed as decrease in forskolin induced cAMP level preincubated for 15 mins followed by forskolin addition incubated for 15 mins by HTRF assay
Cannabinoid receptor 2 [5] = molecular target: T2, Cannabinoid receptor 2; experiment: Partial agonist activity at CBR2 V1133.32M mutant (unknown origin) stably expressed in HEK293T assessed as decrease in forskolin induced cAMP level preincubated for 15 mins followed by forskolin addition incubated for 15 mins in presence of cannabidiol by HTRF assay
[6] = tested on: Cannabinoid receptor 2 (Homo sapiens), P34972 [V36M]; experiment: Partial agonist activity at CBR2 V361.35M mutant (unknown origin) stably expressed in HEK293T assessed as decrease in forskolin induced cAMP level preincubated for 15 mins followed by forskolin addition incubated for 15 mins in presence of cannabidiol by HTRF assay relative to control; details: filed as partial agonist, time 30.0 min
Cannabinoid receptor 2 [7] = molecular target: T3, Cannabinoid receptor 2 (Homo sapiens, UniProt P34972, A282M); experiment: Partial agonist activity at CBR2 A2827.36M mutant (unknown origin) stably expressed in HEK293T assessed as decrease in forskolin induced cAMP level preincubated for 15 mins followed by forskolin addition incubated for 15 mins in presence of cannabidiol by HTRF assay
Cannabinoid receptor 2 [8] = molecular target: Cannabinoid receptor 2 (Homo sapiens, UniProt P34972, S285L); experiment: Partial agonist activity at CBR2 S2857.39L mutant (unknown origin) stably expressed in HEK293T assessed as decrease in forskolin induced cAMP level preincubated for 15 mins followed by forskolin addition incubated for 15 mins by HTRF assay
[9] = tested on: Cannabinoid receptor 2 (Homo sapiens), P34972 [S285L]; experiment: Partial agonist activity at CBR2 S2857.39L mutant (unknown origin) stably expressed in HEK293T assessed as decrease in forskolin induced cAMP level preincubated for 15 mins followed by forskolin addition incubated for 15 mins by HTRF assay relative to control; details: filed as partial agonist, time 30.0 min
Cannabinoid receptor 2 [10] = molecular target: T2, Cannabinoid receptor 2; experiment: Partial agonist activity at CBR2 V1133.32M mutant (unknown origin) expressed in HEK293T assessed as increase in ERK1/2 phosphorylation incubated for 7 mins by AlphaScreenSureFire method
Cannabinoid receptor 2 [11] = molecular target: T2, Cannabinoid receptor 2; experiment: Partial agonist activity at CBR2 V1133.32M mutant (unknown origin) expressed in HEK293T assessed as increase in ERK1/2 phosphorylation incubated for 7 mins in presence of cannabidiol by AlphaScreenSureFire method
[12] = tested on: Cannabinoid receptor 2 (Homo sapiens), P34972 [V113M]; experiment: Partial agonist activity at CBR2 V1133.32M mutant (unknown origin) expressed in HEK293T assessed as increase in ERK1/2 phosphorylation incubated for 7 mins by AlphaScreenSureFire method relative to control; details: filed as partial agonist
[13] = tested on: Cannabinoid receptor 2 (Homo sapiens), P34972 [V113M]; experiment: Partial agonist activity at CBR2 V1133.32M mutant (unknown origin) expressed in HEK293T assessed as increase in ERK1/2 phosphorylation incubated for 7 mins in presence of cannabidiol by AlphaScreenSureFire method relative to control; details: filed as partial agonist
Cannabinoid receptor 2 [14] = molecular target: T4, Cannabinoid receptor 2 (Homo sapiens, UniProt P34972, V36M); experiment: Partial agonist activity at CBR2 V361.35M mutant (unknown origin) expressed in HEK293T assessed as increase in ERK1/2 phosphorylation incubated for 7 mins by AlphaScreenSureFire method
Cannabinoid receptor 2 [15] = molecular target: T4, Cannabinoid receptor 2; experiment: Partial agonist activity at CBR2 V361.35M mutant (unknown origin) expressed in HEK293T assessed as increase in ERK1/2 phosphorylation incubated for 7 mins in presence of cannabidiol by AlphaScreenSureFire method
Cannabinoid receptor 2 [16] = molecular target: T3, Cannabinoid receptor 2; experiment: Partial agonist activity at CBR2 A2827.36M mutant (unknown origin) expressed in HEK293T assessed as increase in ERK1/2 phosphorylation incubated for 7 mins in presence of cannabidiol by AlphaScreenSureFire method
Cannabinoid receptor 2 [17] = molecular target: T1, Cannabinoid receptor 2; experiment: Positive allosteric modulation of JWH-133-induced agonist activity at wild type CB2 receptor (unknown origin) stably expressed in HEK293T cells assessed as inhibition of forskolin-stimulated cAMP levels preincubated for 15 mins followed by forskolin addition incubated for 15 mins by HTRF assay relative to control; details: filed as positive allosteric modulator, time 30.0 min
Cannabinoid receptor 2 [18] = molecular target: T1, Cannabinoid receptor 2; experiment: Partial agonist activity at wild type CB2 receptor (unknown origin) expressed in HEK293T assessed as increase in picometer shifts of reflected light wavelengths in presence of cannabidiol by DMR assay
Cannabinoid receptor 2 [19] = molecular target: T1, Cannabinoid receptor 2; experiment: Partial agonist activity at wild type CB2 receptor (unknown origin) expressed in HEK293T assessed as increase in picometer shifts of reflected light wavelengths by DMR assay relative to control; details: filed as partial agonist
Cannabinoid receptor 2 [20] = molecular target: T1, Cannabinoid receptor 2; experiment: Positive allosteric modulation of JWH-133-induced agonist activity at wild type CB2 receptor (unknown origin) stably expressed in HEK293T cells assessed as inhibition of forskolin-stimulated cAMP levels preincubated for 15 mins followed by forskolin addition incubated for 15 mins by HTRF assay
Cannabinoid receptor 2 [21] = molecular target: T2, Cannabinoid receptor 2; experiment: Partial agonist activity at CBR2 V1133.32M mutant (unknown origin) expressed in HEK293T assessed as increase in picometer shifts of reflected light wavelengths by DMR assay
[22] = tested on: Cannabinoid receptor 2 (Homo sapiens), P34972 [V113M]; experiment: Partial agonist activity at CBR2 V1133.32M mutant (unknown origin) expressed in HEK293T assessed as increase in picometer shifts of reflected light wavelengths by DMR assay relative to control; details: filed as partial agonist
[23] = tested on: Cannabinoid receptor 2 (Homo sapiens), P34972 [V113M]; experiment: Partial agonist activity at CBR2 V1133.32M mutant (unknown origin) expressed in HEK293T assessed as increase in picometer shifts of reflected light wavelengths in presence of cannabidiol by DMR assay relative to control; details: filed as partial agonist
[24] = tested on: Cannabinoid receptor 2 (Homo sapiens), P34972 [A282M]; experiment: Partial agonist activity at CBR2 A2827.36M mutant (unknown origin) expressed in HEK293T assessed as increase in picometer shifts of reflected light wavelengths by DMR assay relative to control; details: filed as partial agonist
[25] = tested on: Cannabinoid receptor 2 (Homo sapiens), P34972 [S285L]; experiment: Partial agonist activity at CBR2 S2857.39L mutant (unknown origin) expressed in HEK293T assessed as increase in picometer shifts of reflected light wavelengths by DMR assay relative to control; details: filed as partial agonist
[26] = tested on: Cannabinoid receptor 2 (Homo sapiens), P34972 [S285L]; experiment: Partial agonist activity at CBR2 S2857.39L mutant (unknown origin) expressed in HEK293T assessed as increase in picometer shifts of reflected light wavelengths in presence of cannabidiol by DMR assay relative to control; details: filed as partial agonist

Chain of Cannabinoid receptor 2 (Homo sapiens), P34972 [S285L] (P34972 whole entry S285L): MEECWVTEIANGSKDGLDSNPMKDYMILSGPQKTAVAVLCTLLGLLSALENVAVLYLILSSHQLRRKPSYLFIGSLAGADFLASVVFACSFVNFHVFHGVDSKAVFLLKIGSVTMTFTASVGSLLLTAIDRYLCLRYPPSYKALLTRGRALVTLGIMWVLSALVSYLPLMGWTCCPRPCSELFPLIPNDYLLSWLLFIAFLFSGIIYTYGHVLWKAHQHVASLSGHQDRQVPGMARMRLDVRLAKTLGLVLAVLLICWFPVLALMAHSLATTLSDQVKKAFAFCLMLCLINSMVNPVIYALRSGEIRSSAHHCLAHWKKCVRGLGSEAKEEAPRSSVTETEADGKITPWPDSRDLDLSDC
T1 sequence (P34972 whole entry): as the sequence (P34972 whole entry S285L) above, with L285S counted along it
Chain of Cannabinoid receptor 2 (Homo sapiens), P34972 [V113M] (P34972 whole entry V113M): as the sequence (P34972 whole entry S285L) above, with V113M, L285S counted along it
T2 sequence (P34972 whole entry V113M): as the sequence (P34972 whole entry S285L) above, with V113M, L285S counted along it
T3 sequence (P34972 whole entry A282M): as the sequence (P34972 whole entry S285L) above, with A282M, L285S counted along it
T4 sequence (P34972 whole entry V36M): as the sequence (P34972 whole entry S285L) above, with V36M, L285S counted along it
Chain of Cannabinoid receptor 2 (Homo sapiens), P34972 [A282M] (P34972 whole entry A282M): as the sequence (P34972 whole entry S285L) above, with A282M, L285S counted along it
Chain of Cannabinoid receptor 2 (Homo sapiens, UniProt P34972, S285L) (P34972 whole entry S285L): as the sequence (P34972 whole entry S285L) above
Chain of Cannabinoid receptor 2 (Homo sapiens), P34972 [V36M] (P34972 whole entry V36M): as the sequence (P34972 whole entry S285L) above, with V36M, L285S counted along it

With `CCCC(C)(C)c1cc(O)c2c(c1)OC(C)(C)[C@@H]1CC=C(C)C[C@@H]21` the EC50 (Cannabinoid receptor 2 [1]) was 31.6 nM, the EC50 (Cannabinoid receptor 2 [2]) was 50.1 nM and the Emax (Cannabinoid receptor 2 [3]) was 57.8%. It also gave an EC50 (Cannabinoid receptor 2 [4]) of 20 nM, an EC50 (Cannabinoid receptor 2 [5]) of 25.1 nM and an Emax [6] of 53%. The EC50 (Cannabinoid receptor 2 [7]) was 7.94 nM, the EC50 (Cannabinoid receptor 2 [8]) was 39.8 nM and the Emax [9] was 49.3%. It also gave an EC50 (Cannabinoid receptor 2 [10]) of 20 nM, an EC50 (Cannabinoid receptor 2 [11]) of 39.8 nM and an Emax [12] of 276%. The Emax [13] was 216%, the EC50 (Cannabinoid receptor 2 [14]) was 31.6 nM and the EC50 (Cannabinoid receptor 2 [15]) was 39.8 nM. It also gave an EC50 (Cannabinoid receptor 2 [16]) of 12.6 nM, an Emax (Cannabinoid receptor 2 [17]) of 56% and an EC50 (Cannabinoid receptor 2 [18]) of 631 nM. It also gave an Emax (Cannabinoid receptor 2 [19]) of 183%, an EC50 (Cannabinoid receptor 2 [20]) of 25.1 nM and an EC50 (Cannabinoid receptor 2 [21]) of 501 nM. It also gave an Emax [22] of 79.9%, an Emax [23] of 71.9% and an Emax [24] of 199%. The Emax [25] was 223% and the Emax [26] was 165%.
